Reference: patent US20230312646A1, “ANTIBACTERIAL PEPTIDES” (priority 2020, published 2023)
Read-outs that look alike come from different tables or passages of the source. Numbered stars: 1 amine (or outer) side, 2 acyl side, 3 side chain; on linkers, the order of the positions; unused ones are H or OH. Square brackets hold non-standard residues; d marks the D form. Peptide text beside a SMILES is read from it. * marks the point of attachment. ξ: configuration not given here. ACHC(1S,2S) = O=C([C@H]1CCCC[C@@H]1N[*:1])[*:2]; Acryloyl(3-(3-pyridyl),E) = O=C(/C=C/c1cccnc1)*; Phe(3,4-Cl2) = N[C@@H](Cc1ccc(Cl)c(Cl)c1)C(=O)O; Oic = O=C(O)[C@@H]1C[C@@H]2CCCC[C@@H]2N1; NMeCha = CN[C@@H](CC1CCCCC1)C(=O)O; Hydrocinnamoyl = O=C(CCc1ccccc1)*; NMeR = CN[C@@H](CCCNC(=N)N)C(=O)O; NMeF = CN[C@@H](Cc1ccccc1)C(=O)O; X4 = O=C([O-])[C@H](Cc1ccccc1)N*; tBuAla = CC(C)(C)C[C@H](N)C(=O)O; Cha = N[C@@H](CC1CCCCC1)C(=O)O; NMeD = CN[C@@H](CC(=O)O)C(=O)O; X1 = O=C(/C=C/c1ccc2ccccc2c1)*; X3 = CN(C)C(NCC(=O)*)=[N+](C)C; Phe(ol) = N[C@H](CO)Cc1ccccc1; NHPhenethyl = c1ccc(CCN*)cc1; ξOic = O=C(O)C1CC2CCCCC2N1; X8 = NC[C@H](Cc1ccccc1)N*; X6 = O=C(/C=C/c1ccccc1)*

Target: T1, Escherichia coli SC (^EcSC) (Escherichia coli, UniProt P0A988)
T1 construct: His tag (inferred from the pET15b vector and Ni-NTA purification) (N); made in house; host or cells: E. coli
Assay: biochemical
Assay type: binding
Conditions: for ΔG (kcal/mol) / Kd: ITC at 298.15 K (25° C.); for Kd: Kd (nM); for ΔG (kcal mol^-1): ITC at 25° C.; for koff, fold higher than for peptide 1 (P1): compared to P1
Method: The procedure has been described previously (Wolff, P.; Oliéric, V.; Briand, J. P.; Chaloin, O.; Dejaegere, A.; Dumas, P.; Ennifar, E.; Guichard, G.; Wagner, J.; Burnouf, D. Y., Structure-Based Design of Short Peptide Ligands Binding onto the E. coli Processivity Ring. J. Med. Chem. 2011, 54 (13), 4627-4637). Briefly, E.coli cells were transformed with plasmids pET15b containing the dnaN gene from E. coli and were grown in LB at 37° C. to OD 0.5, then induced by IPTG (0.1 mM) at 28° C. overnight. dnaN proteins fractions were first enriched on a Ni-NTA column, eluted with a histidine step (300 mM) and further purified on a Source Q column in buffer containing 20 mM Tris HCI pH 7.5, 0.5 mM EDTA and 10% (v/v) glycerol, using a gradient from 0 to 0.5 M NaCl. After a final ultracentrifugation (45 K, 1 h, 20° C.), soluble proteins were concentrated on a Centricon 30 K (Millipore) in the same buffer and stored at 4° C. in 2 M ammonium sulfate. Buffer exchange was performed on Centrikon 10 K at 4° C. before use and protein quality was assessed by DLS.
ITC experiments were performed using an iTC200 or a PEAQ-ITC instrument (Microcal Malvern Panalytical). Peptides (300 or 600 µM) were titrated at 25° C. by sequential injections (usually 2 µl each) into an SC solution (30 or 60 µM). Data were corrected for heat of injection by subtracting the signal of the titration of peptides into proteiN-free buffer solution (Hepes 10 mM pH 7.4, NaCl 0.15 M, EDTA 3 mM). Each titration was performed at least twice. Analyses of experimental data were performed following a classical treatment with the AFFINImeter software (https://www.affinimeter.com; S4S, Santiago de Compostela, Spain). In addition, kinetic information was obtained in some cases with kinITC as implemented in the software AFFINImeter.
All newly synthesized peptides were tested for their interaction with ^EcSC by ITC at 25° C. As a general rule, all thermodynamic profiles reveal an exothermic interaction, and a non-favorable entropic component. The resulting negative Gibb’s free energies characterize a spontaneous interaction. The analysis of raw data by the Affinimeter® software also gave access to kinetics rate constant of the interaction.

T1 sequence (P0A988 whole entry): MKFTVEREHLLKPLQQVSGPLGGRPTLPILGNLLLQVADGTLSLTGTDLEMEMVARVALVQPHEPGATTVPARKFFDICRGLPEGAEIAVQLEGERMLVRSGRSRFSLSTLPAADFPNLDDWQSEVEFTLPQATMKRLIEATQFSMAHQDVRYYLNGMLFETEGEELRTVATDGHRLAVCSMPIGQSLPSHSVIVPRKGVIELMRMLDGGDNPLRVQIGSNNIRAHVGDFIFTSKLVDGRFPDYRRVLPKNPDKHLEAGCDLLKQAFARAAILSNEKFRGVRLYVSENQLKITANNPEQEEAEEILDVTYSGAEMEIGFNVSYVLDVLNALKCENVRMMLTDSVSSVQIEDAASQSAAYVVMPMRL

SMILES | ΔG (kcal/mol) | Kd [nM] | kon (read-out: kon (M^-1.s^-1)) [M⁻¹ s⁻¹] | kon (read-out: kon (M^-1 s^-1)) [M⁻¹ s⁻¹] | ΔG (kcal mol^-1) | koff, fold higher than for peptide 1 (P1) [fold]
CC(C)C[C@H](NC(=O)[C@H](CC(=O)O)NC(=O)[C@H](CC1CCCCC1)NC(=O)[C@H](CCC(N)=O)NC(=O)/C=C/c1cccnc1)C(=O)N[C@@H](Cc1ccccc1)C(=O)O [P16] ({Acryloyl(3-(3-pyridyl),E)}-Q[Cha]DLF-OH) | -9.3 (± 0.2) kcal/mol | 156 | 46000 | – | – | –
CC(=O)N[C@@H](CCC(N)=O)C(=O)N[C@@H](CC1CCCCC1)C(=O)N[C@@H](CC(=O)O)C(=O)N[C@@H](CC(C)C)C(=O)N[C@H]1CCCC[C@@H]1C(=O)N[C@@H](CC(C)C)C(=O)O [P31] (Ac-Q[Cha]DL[ACHC(1S,2S)]L-OH) | -7.4 (± 0.2) kcal/mol | 4070 | 7400 | – | – | –
CC(=O)N[C@@H](CCCNC(=N)N)C(=O)N[C@@H](CCC(N)=O)C(=O)N[C@@H](CC1CCCCC1)C(=O)N(C)[C@@H](CC(=O)O)C(=O)N[C@@H](CC(C)C)C(=O)N[C@@H](Cc1ccc(Cl)c(Cl)c1)C(=O)O [P36] (Ac-RQ[Cha][NMeD]L[Phe(3,4-Cl2)]-OH) | – | 278 | – | 76000 | – | –
CC(=O)N[C@@H](CCC(N)=O)C(=O)N[C@@H](CC1CCCCC1)C(=O)N[C@@H](CC(=O)O)C(=O)N[C@@H](CC(C)C)C(=O)N[C@@H](Cc1ccccc1)C(N)=O [P26] (Ac-Q[Cha]DLF-NH2) | -9.0 (± 0.1) kcal/mol | 268 | 33000 | – | – | –
CC(C)C[C@H](NC(=O)[C@H](CC(=O)O)NC(=O)[C@H](CC1CCCCC1)NC(=O)[C@H](CCC(N)=O)NC(=O)/C=C/c1ccc2ccccc2c1)C(=O)N[C@@H](Cc1ccccc1)C(=O)O [P20] (X1-Q[Cha]DLF-OH) | – | 89 | 65000 | – | – | –
CC(=O)N[C@@H](CCC(N)=O)C(=O)N[C@@H](CC1CCCCC1)C(=O)N[C@@H](CC(=O)O)C(=O)N[C@@H](CC(C)C)C(=O)N(C)[C@@H](Cc1ccccc1)C(=O)O [P7] (Ac-Q[Cha]DL[NMeF]-OH) | -7.1 (± 0.1) kcal/mol | > 1000 | 10000 | – | – | –
CC(=O)N[C@@H](CCC(N)=O)C(=O)N[C@@H](CC1CCCCC1)C(=O)N[C@@H](CC(=O)O)C(=O)N[C@@H](CC(C)C)C(=O)N[C@H](CN)Cc1ccccc1 [P25] (Ac-Q[Cha]DL-X8) | -8.27 (± 0.03) kcal/mol | 877 | 12000 | – | – | –
CC(=O)N[C@@H](CCC(N)=O)C(=O)N[C@@H](CC1CCCCC1)C(=O)N[C@@H](CC(=O)O)C(=O)N[C@@H](CC(C)C)C(=O)NCC(=O)N[C@@H](CC(C)(C)C)C(=O)O [P28] (Ac-Q[Cha]DLG[tBuAla]-OH) | -7.60 (± 0.06) kcal/mol | 2690 | 11000 | – | – | –
CC(C)C[C@H](NC(=O)[C@H](CC(=O)O)N(C)C(=O)[C@H](CC1CCCCC1)NC(=O)[C@H](CCC(N)=O)NC(=O)/C=C/c1cccnc1)C(=O)N1[C@H](C(=O)N[C@@H](Cc2ccccc2)C(=O)O)C[C@@H]2CCCC[C@@H]21 [P49] ({Acryloyl(3-(3-pyridyl),E)}-Q[Cha][NMeD]L[Oic]F-OH) | – | 118 | – | 47000 | -9.5 (± 0.1) kcal mol^-1 | –
CC(=O)N[C@@H](CCC(N)=O)C(=O)N[C@@H](CC1CCCCC1)C(=O)N[C@@H](CC(=O)O)C(=O)N[C@@H](CC(C)C)C(=O)N[C@H](CO)Cc1ccccc1 [P24] (Ac-Q[Cha]DL[Phe(ol)]) | -8.4 (± 0.1) kcal/mol | 751 | 26000 | – | – | –
CC(=O)N[C@@H](CCC(N)=O)C(=O)N[C@@H](CC1CCCCC1)C(=O)N[C@@H](CC(=O)O)C(=O)N[C@@H](CC(C)C)C(=O)NCCc1ccccc1 [P23] (Ac-Q[Cha]DL-NHPhenethyl) | -8.2 (± 0.05) kcal/mol | 922 | 19000 | – | – | –
CC(C)C[C@H](NC(=O)[C@H](CC(=O)O)NC(=O)[C@H](CC1CCCCC1)NC(=O)[C@H](CCC(N)=O)NC(=O)CCc1ccccc1)C(=O)N[C@@H](Cc1ccccc1)C(=O)O [P19] (Hydrocinnamoyl-Q[Cha]DLF-OH) | – | 123 | 55000 | – | – | –
CC(C)C[C@H](NC(=O)[C@H](CC(=O)O)N(C)C(=O)[C@H](CC1CCCCC1)NC(=O)[C@H](CCC(N)=O)NC(=O)/C=C/c1cccnc1)C(=O)N1CCC[C@H]1C(=O)N[C@@H](Cc1ccccc1)C(=O)O [P46] ({Acryloyl(3-(3-pyridyl),E)}-Q[Cha][NMeD]LPF-OH) | – | 36 | – | 140000 | -10.2 (± 0.1) kcal mol^-1 | –
CC(C)C[C@H](NC(=O)[C@H](CC(=O)O)NC(=O)[C@H](CC1CCCCC1)NC(=O)[C@H](CCC(N)=O)NC(=O)/C=C/c1ccccc1)C(=O)N[C@@H](Cc1ccccc1)C(=O)O [P17] (X6-Q[Cha]DLF-OH) | -9.4 (± 0.2) kcal/mol | 129 | 46000 | – | – | –
CC(=O)N(C)[C@@H](CCCNC(=N)N)C(=O)N[C@@H](CCC(N)=O)C(=O)N[C@@H](CC1CCCCC1)C(=O)N[C@@H](CC(=O)O)C(=O)N[C@@H](CC(C)C)C(=O)N[C@@H](Cc1ccccc1)C(=O)O [P13] (Ac-[NMeR]Q[Cha]DLF-OH) | -7.7 (± 0.1) kcal/mol | 2130 | 21000 | – | – | 4
CC(=O)N[C@@H](CCC(N)=O)C(=O)N[C@@H](CC1CCCCC1)C(=O)N[C@@H](CC(=O)O)C(=O)N[C@@H](CC(C)C)C(=O)NCC(=O)N[C@@H](CC(C)C)C(=O)O [P27] (Ac-Q[Cha]DLGL-OH) | -8.4 (± 0.1) kcal/mol | 682 | 26000 | – | – | –
CC(=O)N[C@@H](CCC(N)=O)C(=O)N[C@@H](CC1CCCCC1)C(=O)N[C@@H](CC(=O)O)C(=O)N[C@@H](CC(C)C)C(=O)N1[C@H](C(=O)N[C@@H](Cc2ccccc2)C(=O)O)C[C@@H]2CCCC[C@@H]21 [P48] (Ac-Q[Cha]DL[Oic]F-OH) | – | 120 | – | 55000 | -9.5 (± 0.3) kcal mol^-1 | –
CC(C)C[C@H](NC(=O)[C@@H]1CCCN1C(=O)[C@H](CC(C)C)NC(=O)[C@H](CC(=O)O)NC(=O)[C@H](CC1CCCCC1)NC(=O)[C@H](CCC(N)=O)NC(=O)/C=C/c1ccccc1)C(=O)O [P43] (X6-Q[Cha]DLPL-OH) | – | 132 | – | 60000 | – | –
CC(=O)N[C@@H](CCC(N)=O)C(=O)N[C@@H](CC1CCCCC1)C(=O)N[C@@H](CC(=O)O)C(=O)N[C@@H](CC(C)C)C(=O)N1C(C(=O)N[C@@H](CC(C)C)C(=O)O)CC2CCCCC21 (stereo partly drawn) [P47] (Ac-Q[Cha]DL[ξOic]L-OH) | – | – | – | 71000 | – | –
CC(=O)N[C@@H](CCC(N)=O)C(=O)N(C)[C@@H](CC1CCCCC1)C(=O)N[C@@H](CC(=O)O)C(=O)N[C@@H](CC(C)C)C(=O)N[C@@H](Cc1ccccc1)C(=O)O [P3] (Ac-Q[NMeCha]DLF-OH) | -6.0 (± 0.1) kcal/mol | > 1000 | – | – | – | –
CC(=O)N[C@@H](CCCNC(=N)N)C(=O)N[C@@H](CCC(N)=O)C(=O)N[C@@H](CC1CCCCC1)C(=O)N[C@@H](CC(=O)O)C(=O)N[C@@H](CC(C)C)C(=O)N[C@@H](Cc1ccccc1)C(=O)O [P12] (Ac-RQ[Cha]DLF-OH) | -8.60 (± 0.08) kcal/mol | 498 | 37000 | – | – | 2.5
CC(C)C[C@H](NC(=O)[C@H](CC(=O)O)NC(=O)[C@H](CC1CCCCC1)NC(=O)[C@H](CCC(N)=O)NC(=O)CNC(N(C)C)=[N+](C)C)C(=O)N[C@@H](Cc1ccccc1)C(=O)[O-] [P15] (X3-Q[Cha]DL-X4) | -8.7 (± 0.1) kcal/mol | 353 | 34000 | – | – | –
